In one data set the target is T1, telomerase (Homo sapiens, UniProt O14746).
T1 construct: A549 cells (human epithelial cell lung carcinoma, ATCC, Manassas, VA) were lysed in; host or cells: A549 cell lysate (CHAPS extract, 5 µg total protein)
The data set can be described thus: TRAP / RTQ-TRAP telomerase activity assay in A549 cell-free lysates.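 Further: telomerase activity measured in cell-free extracts of human A549 epithelial lung carcinoma cells, tested across a range of inhibitor concentrations.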 The format is biochemical. The conditions noted are these: telomerase inhibition, mean ± SEM.

The target of data set [1] is T2, telomerase inside living cancer cells A549 (Homo sapiens, UniProt O14746).
T2 construct: host or cells: A549
T2 sequence (O14746 whole entry): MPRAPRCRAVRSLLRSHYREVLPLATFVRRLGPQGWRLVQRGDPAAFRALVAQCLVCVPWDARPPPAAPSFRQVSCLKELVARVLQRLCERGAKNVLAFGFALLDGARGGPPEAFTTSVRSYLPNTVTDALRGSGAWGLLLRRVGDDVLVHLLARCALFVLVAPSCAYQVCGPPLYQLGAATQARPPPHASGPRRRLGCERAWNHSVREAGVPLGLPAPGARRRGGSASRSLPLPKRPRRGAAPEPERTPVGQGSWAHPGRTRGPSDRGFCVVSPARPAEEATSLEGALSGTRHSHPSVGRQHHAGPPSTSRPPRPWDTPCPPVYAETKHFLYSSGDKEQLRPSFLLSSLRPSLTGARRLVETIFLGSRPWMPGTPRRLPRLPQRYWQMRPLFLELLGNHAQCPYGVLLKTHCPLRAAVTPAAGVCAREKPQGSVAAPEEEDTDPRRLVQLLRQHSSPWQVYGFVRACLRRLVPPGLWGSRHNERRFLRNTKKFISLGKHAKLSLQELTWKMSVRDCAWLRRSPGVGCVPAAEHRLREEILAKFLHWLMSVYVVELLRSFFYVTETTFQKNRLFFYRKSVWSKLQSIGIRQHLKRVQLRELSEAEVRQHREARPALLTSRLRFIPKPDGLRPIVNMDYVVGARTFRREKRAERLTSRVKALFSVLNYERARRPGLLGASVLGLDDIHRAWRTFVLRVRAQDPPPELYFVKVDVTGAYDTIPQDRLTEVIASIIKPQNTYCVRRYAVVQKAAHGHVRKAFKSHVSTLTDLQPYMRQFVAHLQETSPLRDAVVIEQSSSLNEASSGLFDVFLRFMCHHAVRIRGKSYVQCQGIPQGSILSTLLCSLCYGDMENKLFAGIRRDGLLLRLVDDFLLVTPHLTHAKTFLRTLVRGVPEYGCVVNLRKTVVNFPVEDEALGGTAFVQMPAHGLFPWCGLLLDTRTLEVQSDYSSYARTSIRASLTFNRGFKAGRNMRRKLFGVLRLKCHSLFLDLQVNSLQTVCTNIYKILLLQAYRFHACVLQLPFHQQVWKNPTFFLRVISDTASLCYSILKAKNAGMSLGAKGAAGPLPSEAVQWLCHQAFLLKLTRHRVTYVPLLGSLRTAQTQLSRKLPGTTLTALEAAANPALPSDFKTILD
T2 sequence (O60832 whole entry partner): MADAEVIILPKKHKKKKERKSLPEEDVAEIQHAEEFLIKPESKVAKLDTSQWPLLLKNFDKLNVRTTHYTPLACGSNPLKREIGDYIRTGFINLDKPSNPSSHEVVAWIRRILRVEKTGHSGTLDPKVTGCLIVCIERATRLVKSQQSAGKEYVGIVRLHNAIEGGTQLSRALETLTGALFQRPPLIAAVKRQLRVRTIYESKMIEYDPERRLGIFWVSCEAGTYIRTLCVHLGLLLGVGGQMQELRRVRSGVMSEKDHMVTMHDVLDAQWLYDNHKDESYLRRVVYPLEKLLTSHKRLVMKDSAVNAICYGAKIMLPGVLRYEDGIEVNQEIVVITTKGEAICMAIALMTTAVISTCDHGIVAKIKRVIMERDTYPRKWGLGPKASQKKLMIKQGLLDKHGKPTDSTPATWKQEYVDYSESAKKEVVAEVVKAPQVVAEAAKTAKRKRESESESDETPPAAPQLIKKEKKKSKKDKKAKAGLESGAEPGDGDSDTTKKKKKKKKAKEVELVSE
T2 sequence (Q9NX24 whole entry partner): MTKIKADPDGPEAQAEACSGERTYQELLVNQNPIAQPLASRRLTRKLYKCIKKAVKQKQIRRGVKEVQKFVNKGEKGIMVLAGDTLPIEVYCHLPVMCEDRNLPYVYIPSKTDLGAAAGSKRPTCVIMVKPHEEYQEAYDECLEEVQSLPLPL
T2 sequence (Q9NPE3 whole entry partner): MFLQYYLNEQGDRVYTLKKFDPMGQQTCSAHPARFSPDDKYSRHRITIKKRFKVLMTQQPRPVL
T2 sequence (Q9NY12 whole entry partner): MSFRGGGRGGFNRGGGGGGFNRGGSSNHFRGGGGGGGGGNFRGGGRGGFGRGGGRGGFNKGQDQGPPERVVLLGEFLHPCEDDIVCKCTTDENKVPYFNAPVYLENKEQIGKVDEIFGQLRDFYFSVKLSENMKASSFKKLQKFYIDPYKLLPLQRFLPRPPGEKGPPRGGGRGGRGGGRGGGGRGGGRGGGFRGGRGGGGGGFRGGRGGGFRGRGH
T2 sequence (Q9BUR4 whole entry partner): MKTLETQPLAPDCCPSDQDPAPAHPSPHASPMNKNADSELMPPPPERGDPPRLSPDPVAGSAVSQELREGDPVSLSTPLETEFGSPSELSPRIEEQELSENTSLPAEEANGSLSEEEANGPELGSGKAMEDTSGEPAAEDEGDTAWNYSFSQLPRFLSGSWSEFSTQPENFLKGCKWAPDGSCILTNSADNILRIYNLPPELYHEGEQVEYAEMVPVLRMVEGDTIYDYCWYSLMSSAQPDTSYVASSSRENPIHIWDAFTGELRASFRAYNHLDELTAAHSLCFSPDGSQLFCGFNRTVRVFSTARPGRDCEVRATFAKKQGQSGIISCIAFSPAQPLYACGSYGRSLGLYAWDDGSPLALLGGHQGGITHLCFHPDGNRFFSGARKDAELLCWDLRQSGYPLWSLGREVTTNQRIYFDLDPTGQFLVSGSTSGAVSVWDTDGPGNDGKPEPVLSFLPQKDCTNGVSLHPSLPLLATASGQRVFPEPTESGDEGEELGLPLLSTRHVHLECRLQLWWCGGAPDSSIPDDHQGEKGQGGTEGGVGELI
The data set can be described thus: Living-cell TRAP assay, A549. The data set is classed as cell-based. To be noted: percent of control cells, 10 µM, 48 h.
Method: (§1) The Telomeric Repeat Amplification Protocol (TRAP) [61] was used to evaluate the activity of telomerase, with some changes that we have previously described [62, 63]. A549 cells (human epithelial cell lung carcinoma, ATCC, Manassas, VA) were lysed in (10 mM) Tris-HCl, pH 7.5, (1 mM) EGTA, (1 mM) MgCl2, (5 mM) 2-mercaptoethanol, (0.1 mM) PMSF, (0.5%) CHAPS, and (10%) glycerol (Sigma-Aldrich, St. Louis, MO, USA) and centrifugation. The supernatants were kept at -80 °C. The BCA-1 Protein Assay Kit was used to assess the protein concentration in cell extracts (Sigma-Aldrich, St. Louis, MO, USA). […] To inactivate telomerase, the cells were elongated for 30 min at 37 °C and 10 min at 96 °C. Copy CX-primer was added to the elongation mixture along with 0.1 μL ([NT]) and 2.5 units Taq-polymerase, followed by the following PCR: 94 °C for 5 min; 30 cycles of 94 °C for 30 s, 50 °C for 30 s, and 72 °C for 40 s, and 72 °C for 5 min. TBE buffer and (12%) nondenaturing PAAG electrophoresis were used to visualize the PCR product. 10 μL of each sample was placed in each well of gel comb. The gels were stained with the SYBR Green I (Invitrogen, Grand Island, NY, USA), then photographed under the UV light in ChemiDocTM XRS imaging system and analyzed with GelAnalyzer 2010.

Data set [2] has as its target T3, telomerase inside living cancer cells HCC44 (Homo sapiens, UniProt O14746).
T3 construct: host or cells: HCC44
The data set can be described thus: Living-cell TRAP assay, HCC44. To be noted: percent of control cells, 10 µM, 48 h. The data set is classed as cell-based.
Method: as §1

For data set [3], the target named is T4, telomerase inside living cancer cells NCI-H23 (Homo sapiens, UniProt O14746).
T4 construct: host or cells: NCI-H23
T4 sequence (O14746 whole entry): as the sequence (O14746 whole entry) above
T4 sequence (O60832 whole entry partner): as the sequence (O60832 whole entry partner) above
T4 sequence (Q9NX24 whole entry partner): as the sequence (Q9NX24 whole entry partner) above
T4 sequence (Q9NPE3 whole entry partner): as the sequence (Q9NPE3 whole entry partner) above
T4 sequence (Q9NY12 whole entry partner): as the sequence (Q9NY12 whole entry partner) above
T4 sequence (Q9BUR4 whole entry partner): as the sequence (Q9BUR4 whole entry partner) above
The data set can be described thus: Living-cell TRAP assay, NCI-H23. The format is cell-based. To be noted: percent of control cells, 10 µM, 48 h.
Method: as §1

On the set-up of data set [4]: method as in PMID 18256617, PMID 32733068, PMID 32125789. The conditions noted are these: cited from earlier work.
In data set [5] the test system is advanced non-small cell lung cancer. The arrangement: method as in PMID 32733068, PMID 25467017. To be noted: phase II clinical trials, patients with advanced non-small cell lung cancer; cited from earlier work.

The text below walks through data of paper PMC9025901, “New Genetic Bomb Trigger: Design, Synthesis, Molecular Dynamics Simulation, and Biological Evaluation of Novel BIBR1532-Related Analogs Targeting Telomerase against Non-Small Cell Lung Cancer” (Pharmaceuticals, 2022).

The term IC50 denotes the concentration needed to halve the response being measured. A higher IC50 goes with weaker potency in that assay. The IC90 is the point of the concentration-response curve where the effect stands at 90%. For orientation: melting point means the temperature of the solid-liquid transition.

T1 sequence (O14746 whole entry): as the sequence (O14746 whole entry) above
T1 sequence (O60832 whole entry partner): as the sequence (O60832 whole entry partner) above
T1 sequence (Q9NX24 whole entry partner): as the sequence (Q9NX24 whole entry partner) above
T1 sequence (Q9NPE3 whole entry partner): as the sequence (Q9NPE3 whole entry partner) above
T1 sequence (Q9NY12 whole entry partner): as the sequence (Q9NY12 whole entry partner) above
T1 sequence (Q9BUR4 whole entry partner): as the sequence (Q9BUR4 whole entry partner) above
T3 sequence (O14746 whole entry): as the sequence (O14746 whole entry) above
T3 sequence (O60832 whole entry partner): as the sequence (O60832 whole entry partner) above
T3 sequence (Q9NX24 whole entry partner): as the sequence (Q9NX24 whole entry partner) above
T3 sequence (Q9NPE3 whole entry partner): as the sequence (Q9NPE3 whole entry partner) above
T3 sequence (Q9NY12 whole entry partner): as the sequence (Q9NY12 whole entry partner) above
T3 sequence (Q9BUR4 whole entry partner): as the sequence (Q9BUR4 whole entry partner) above

`N#C/C(=C\c1ccc(N2CCCCC2)cc1)C(=O)Nc1sc2c(c1C#N)CCC2` [Compound 29a, (2E)-2-Cyano-N-{3-cyano-4H,5H,6H-cyclopenta[b]thiophen-2-yl}-3-[4-(piperidin-1-yl)phenyl]prop-2-enamide]: it took 1.7 ± 0.04 µM to reach half-maximal inhibition against telomerase (IC50). Further, the IC90 against telomerase was 6.3 ± 0.3 µM. For the same compound, the results for the “% Telomerase Activity in Cancer Cells” value in data set [1], in data set [2] and in data set [3] were 22.1 ± 4.8%, 66.1 ± 2.4% and 28.2 ± 3.9%, respectively.

`C/C(=C\C(=O)Nc1ccccc1C(=O)O)c1ccc2ccccc2c1` [BIBR1532] returned an IC90 at telomerase of 5.6 ± 0.02 µM. Further, in data set [4], the cellular uptake result was “low cellular uptake” and the pharmacokinetics result is “poor pharmacokinetics”.

Take Imetelstat: the overall survival entry in data set [5] is given as “no improvement in overall survival”.

`N#C/C(=C\c1c[nH]c2ccccc12)C(=O)Nc1sc2c(c1C#N)CCCC2` [Compound 39b, (2E)-2-Cyano-N-(3-cyano-4,5,6,7-tetrahydro-1-benzothiophen-2-yl)-3-(1H-indol-3-yl)prop-2-enamide] yielded a melting point of 284 to 286 °C. At telomerase, the IC50 came out at 2 ± 0.03 µM and it took 7.1 ± 0.3 µM to reach the 90% level (IC90). Also, the “% Telomerase Activity in Cancer Cells” value in data set [1] came out at 41.5 ± 6.9%. In addition, the “% Telomerase Activity in Cancer Cells” value in data set [2] is listed as 75.6 ± 7.9%. The “% Telomerase Activity in Cancer Cells” value in data set [3] was determined as 50.3 ± 5.1%.
